Results from patent US9408859B2, “Pharmaceutical compositions useful for preventing and treating cancer” (Mitotech SA, priority 2007, dated 2016).
Values joined by “and” are separate entries in the source; they are usually repeats but may differ in a detail not shown here. Equal values may be shown once.

What was measured:
[1] = tested on: A-431 human skin cancer heteroxenografts; assay: Anti-tumoral activity on A-431 heteroxenografts (tumor volume, T/C, histology); format: in vivo, mouse
Method: Before administration, SkQ1 was diluted with sterile physiological saline up to 0.5 μM and 5.0 μM. The preparation was injected intraperitoneally as single doses of 5.0 nM/kg and 50.0 nM/kg, 0.2 ml/mouse.
(1973) 51:1417-1423. • Morphology: epithelial. • Cultivation method: monolayer. • Cultivation conditions: 10% bovine embryonal serum DMEM culture. • Procedure of seeding: cell removal using 0.25% trypsin, 0.02% versene (3:7), ratio of seeding 1:3 1:6, optimal density 2.04.0×10^4 cell per sm^2 cryopreservation media, 10% DMSO, 1.0×10^6 cells/ml per ampoule. • Viability after cryopreservation: 83% (trypan blue staining on zero passage) • Contamination control: no bacteria, fungi or micoplasma detected • Genetic identity control: karyological, enzymatic (LDH, G6PDH) analysis. • Karyology: 2n-46, chromosome variability limit 5777, chromosome modal number 6871 • Tumorigenicity: tumorigenic in HIV mice and in mice treated with antithymocyte serum. • Other features: large number of receptors to epidermal growth factor. • Application area: growth factors study, cell biology. • Collection: ATCC CRL 1555; ECACC 85090402; INC RAS.
A-431 cells were grown on RPMI-1640 medium that contained 10% calf serum and 1 mM glutamine. Cells were transferred to a flask at a ratio of 1:2 or 1:3 from full monolayer. The medium was changed every 2 to 3 days. A cultivated cell suspension was then used to engraft HIV mice.
The experiment was performed using HIV female mice Balb/c nude at the age 8 to 9.5 weeks. All mice were raised in GU RONC. Mice were managed in specialized virus-free chamber with sterile aeration, fed with sterile briquette food and water under normalized temperature condition and moisture.
Cells of A-431 cell line were hypodermically implanted only once in number 1.7-1×10^6 per mouse in 0.2 ml of RPMI-1640 nutrition medium.
Anti-tumoral effect estimation was carried out using common rate T/C (Treatment/Control), evaluated as a ratio of average tumor volumes in treated and control groups given in percents. Rate was taken evaluated using the following formula T/C %=[…],
where Vo and Vk are the mean volumes of tumor in treated and control groups thereof. Thus, in the control group, T/C=100%. Mean volume was evaluated using the following formula: Vm (mm^3)=axbxc. T/C≦42% was taken as a minimal efficiency criterion (Anticancer Drug Development Guide (1997) (ed. B. A. Teicher) Humana Press, Totowa, N.J., pp. 101-125). To analyze the speed of growth (standarcy value), a ratio of mean tumor relative to the first one taken was determined as follows.
Evaluation started after the appearance of a palpable tumor (9 days after implantation). After that multiple tumor volume evaluations were performed until the 20th day after transplantation. The first evaluation of treated groups was performed during treatment, and the next three evaluations were performed during 6 days after end of the treatment. Tumor evaluations were stopped on the 21st to the 24th day after the first mouse died in three experiments.
(§1) Mice were sacrificed by ether anesthesia overdose. An autopsy was performed, and tumors were then extracted and assayed histologically and immunohistochemically. Tumors were fixed in 10% formaldehyde and set into paraffin wax. Histological assays were carried out on tumor histological sections, stained with hematoxylin and eosin. The number of microvessels was examined by standard immunological method using antibodies to CD34 antigen. Presence of vessel mimicry was estimated by tumor section staining with Schiffs reagent.

[2] = Tolerance to the treatment and autopsy in mice with A-431 xenografts; format: in vivo
Method: Tolerance to the treatment was estimated according to the time of death which corresponded to the treatment with each preparation.
as §1

Ehrlich's carcinoma = assay: Anti-tumoral effect on hypodermic Ehrlich's carcinoma; format: in vivo, mouse; details: 0.5 nM/kg ip
Method: The experiment was performed according to the methods described in Example 2.
Injection of the preparation started 48 hours after transplantation and proceeded during 5, 10, 15, and 30 days. For tumor treatment efficiency, estimations of tumor volumes were evaluated many times after end of short courses or once after end of the 30-day course. […] The results were then statistically calculated using confidence intervals of mean values of compared values, difference stated reliable if p<0.05.

[3] = Mouse life-span when managed in a chamber without sterile aeration; format: in vivo; details: SkQ1 added to drinking water
[4] = Experiment 1 material, Group 2, 5.0 nM/kg
[5] = Experiment 1, 5.0 nM/kg ip daily day 1-14
[6] = Experiment 1, 50.0 nM/kg ip daily day 1-14
[7] = Experiment 3, 5.0 nM/kg ip daily day 1-14

Q: For `CC1=C(C)C(=O)C(CCCCCCCCCC[P+](c2ccccc2)(c2ccccc2)c2ccccc2)=CC1=O` [SkQ1], which T/C ([1]; Experiment 1, 5.0 nM/kg ip daily day 1-14, 14th day) is on record?
A: 74%

Q: And the T/C ([1]; Experiment 1, 5.0 nM/kg ip daily day 1-14, 17th day)?
A: 67%

Q: And the T/C ([1]; Experiment 1, 5.0 nM/kg ip daily day 1-14, 20th day)?
A: 73%

Q: What about the T/C ([1]; Experiment 1, 5.0 nM/kg ip daily, 9th day (after 8 injections)) of the same molecule?
A: 63%

Q: What about the T/C ([1]; Experiment 1, 50.0 nM/kg ip daily day 1-14, 9th day) of the same molecule?
A: 159%

Q: What about the T/C ([1]; Experiment 1, 50.0 nM/kg ip daily day 1-14, 14th day) of the same molecule?
A: 160%

Q: What about the T/C ([1]; Experiment 1, 50.0 nM/kg ip daily day 1-14, 17th day) of the same molecule?
A: 134%

Q: What about the T/C ([1]; Experiment 1, 50.0 nM/kg ip daily day 1-14, 20th day) of the same molecule?
A: 146%

Q: And the “Tumor differentiation (histological assay)” value ([1]; Experiment 1 material, 5.0 nM/kg, vs control)?
A: partial tumor differentiation

Q: What about the “Number of microvessels in tumors (CD34, hot spots)” value ([1]; Experiment 1 material, 23rd day, 9th day after end of treatment, three groups (control, 5.0 and 50.0 nM/kg)) of the same molecule?
A: did not statistically differ

Q: And the Microvessel diameter [1, 4]?
A: smaller diameter than in the control group

Q: And the “Signs of vasculogenic mimicry (PAS staining)” value [1, 4]?
A: no such signs were seen

Q: What about the T/C ([1]; Experiment 2, 5.0 nM/kg ip daily day 1-8, 8th day) of the same molecule?
A: 61%

Q: And the T/C ([1]; Experiment 2, 5.0 nM/kg ip daily day 1-8, 14th day)?
A: 72%

Q: What about the T/C ([1]; Experiment 2, 5.0 nM/kg ip daily day 1-8, 17th day) of the same molecule?
A: 96%

Q: And the T/C ([1]; Experiment 2, 5.0 nM/kg ip daily day 1-8, 24th day)?
A: 101%

Q: What about the T/C ([1]; Experiment 3, 5.0 nM/kg ip daily day 1-14, immediately after the end of the treatment) of the same molecule?
A: 41% and 42%

Q: And the inhibition of growth ([1]; long-termed injection, single doses 5.0 nM/kg, in some cases)?
A: 50%

Q: What about the “Autopsy findings in organs” value [2, 5] of the same molecule?
A: no visual signs of pathological changes

Q: What about the Treatment tolerance [2, 5] of the same molecule?
A: satisfactory

Q: What about the “Autopsy findings in organs” value [2, 6] of the same molecule?
A: no pathological changes

Q: And the Treatment tolerance [2, 6]?
A: satisfactory

Q: And the “Autopsy findings in organs” value ([2]; Experiment 2, 5.0 nM/kg ip daily day 1-8)?
A: no visual signs of pathological changes

Q: And the “Autopsy findings in organs” value [2, 7]?
A: no visual signs of pathological changes

Q: And the Treatment tolerance [2, 7]?
A: satisfactory

Q: What about the tumor volume (Ehrlich's carcinoma; 5-day course, days 2-7, day 7 after transplantation) of the same molecule?
A: 251 mm³

Q: And the TGS% (Ehrlich's carcinoma; 5-day course, day 7)?
A: 40%

Q: And the TGS% (Ehrlich's carcinoma; 5-day course, day 14)?
A: 23%

Q: And the tumor volume (Ehrlich's carcinoma; 5-day course, day 14)?
A: 547 mm³

Q: What about the TGS% (Ehrlich's carcinoma; 5-day course, day 21) of the same molecule?
A: 16%

Q: What about the tumor volume (Ehrlich's carcinoma; 5-day course, day 21) of the same molecule?
A: 1000 mm³

Q: And the tumor volume (Ehrlich's carcinoma; 10-day course, days 2-13, day 7)?
A: 228 mm³

Q: And the TGS% (Ehrlich's carcinoma; 10-day course, day 7)?
A: 45%

Q: What about the TGS% (Ehrlich's carcinoma; 10-day course, day 14) of the same molecule?
A: 34%

Q: And the tumor volume (Ehrlich's carcinoma; 10-day course, day 14)?
A: 474 mm³

Q: And the TGS% (Ehrlich's carcinoma; 10-day course, day 21)?
A: 28%

Q: What about the tumor volume (Ehrlich's carcinoma; 10-day course, day 21) of the same molecule?
A: 853 mm³

Q: And the tumor volume (Ehrlich's carcinoma; 15-day course, days 2-16, day 7)?
A: 259 mm³

Q: And the TGS% (Ehrlich's carcinoma; 15-day course, day 7)?
A: 38%

Q: What about the TGS% (Ehrlich's carcinoma; 15-day course, day 14) of the same molecule?
A: 36%

Q: And the tumor volume (Ehrlich's carcinoma; 15-day course, day 14)?
A: 459 mm³

Q: What about the TGS% (Ehrlich's carcinoma; 15-day course, day 21) of the same molecule?
A: 29%

Q: What about the tumor volume (Ehrlich's carcinoma; 15-day course, day 21) of the same molecule?
A: 838 mm³

Q: What about the “Immunity to infectious diseases (by mouse life-span)” value [3] of the same molecule?
A: increased HIV mice immunity to infectious diseases
